Read-outs that look alike come from different tables or passages of the source.
Target: T1, F508delCFTR (Homo sapiens, UniProt P13569, DEL508-508)
T1 construct: expressed in transfected cells; host or cells: CFBE41o- human lung-derived epithelial cells (CFBE4lo-F508delCFTR-HRP), doxycycline-inducible
Test: Cell Surface Expression-Horse Radish Peroxidase (CSE-HRP) Assay;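 on Maximum % activity (with co-corrector): co-corrector and positive control are both the same reference corrector at 2 µM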;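 on Maximum % activity (without co-corrector): percent of the 2 µM on-plate positive control corrector response above DMSO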
Assay type: cell-based
Conditions: for Emax / Maximum % activity (with co-corrector): maximum at any tested concentration, normalized to on-plate positive control; for Emax: read-out: Maximum % activity (without co-corrector)
Protocol: Cell Surface Expression-Horse Radish Peroxidase (CSE-HRP) Assay;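 on Maximum % activity (with co-corrector): co-corrector and positive control are both the same reference corrector at 2 µM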;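 on Maximum % activity (without co-corrector): percent of the 2 µM on-plate positive control corrector response above DMSO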
The development was achieved by expressing the F508delCFTR mutation along with a horseradish peroxidase (HRP) in the fourth exofacial loop, and then measuring the HRP activity using luminescence readout from these cells, CFBE4lo-F508delCFTR-HRP, that were incubated overnight with the test corrector compounds, either without or with the co-corrector. […] The test compounds were then added either without or with a co-corrector at the required concentrations and further incubated for 18-24 hours at 33° C. The highest concentration tested was 20 μM with an 8-point concentration response curve using a 3-fold dilution in both the test compound without or with the co-corrector. Three replicate plates were run to determine one EC50. All plates contained negative controls (dimethyl sulfoxide, DMSO) and positive control (2 μM of 3-[(2R,4R)-4-({[1-(2,2-difluoro-1,3-benzodioxol-5-yl)cyclopropyl]carbonyl}amino)-7-methoxy-3,4-dihydro-2H-chromen-2-yl]benzoic acid) as well as on-plate concentration response of the positive control. […] The raw counts from the experiment were analyzed using Accelrys® Assay Explorer v3.3.
1−[3*SDPositive Control+3*SDNegative Control/Absolute(MeanPositive Control−MeanNegative Control)]
wherein “SD” is standard deviation.
The % activity measured at each of the 8 test concentrations of the test compound added either without or with a co-corrector (2 μM of 3-[(2R,4R)-4-({[1-(2,2-difluoro-1,3-benzodioxol-5-yl)cyclopropyl]carbonyl}amino)-7-methoxy-3,4-dihydro-2H-chromen-2-yl]benzoic acid) was normalized to the on-plate positive control using the following formulae:
% activity(Test compound without co-corrector)=[(test compound without co-corrector response−DMSO response)/(positive control response−DMSO response)]*100
% activity(Test compound with co-corrector)=[(test compound with co-corrector response−DMSO response)/(positive control response−DMSO response)]*100
The maximum % activity achieved for the test compound either without or with a co-corrector at any tested concentration is presented in Table 4 along with the respective EC50's calculated using the following general sigmoidal curve with variable Hill slope equation (described as Model 42 in the Accelrys® Assay Explorer v3.3 software):
General sigmoidal curve with concentration, response, top, bottom, EC50 and Hill slope. This model describes a sigmoidal curve with an adjustable baseline, a. The equation can be used to fit curves where response is either increasing or decreasing with respect to the independent variable, “x”.
“x” is a concentration of drug under test. “y” is the response. “a” is the maximum response, and “d” is the minimum response “c” is the inflection point (EC50) for the curve. That is, “y” is halfway between the lower and upper asymptotes when x=c. “b” is the slope-factor or Hill coefficient. The sign of b is positive when the response increases with increasing dose and is negative when the response decreases with increasing dose (inhibition).

[1] = test compound without co-corrector
[2] = test compound without co-corrector, read-out: EC50 (without co-corrector)
[3] = with co-corrector (2 μM of 3-[(2R,4R)-4-({[1-(2,2-difluoro-1,3-benzodioxol-5-yl)cyclopropyl]carbonyl}amino)-7-methoxy-3,4-dihydro-2H-chromen-2-yl]benzoic acid)
[4] = with co-corrector (2 μM of 3-[(2R,4R)-4-({[1-(2,2-difluoro-1,3-benzodioxol-5-yl)cyclopropyl]carbonyl}amino)-7-methoxy-3,4-dihydro-2H-chromen-2-yl]benzoic acid), read-out: EC50 (with co-corrector)

T1 sequence (P13569 with tags, fused parts or gaps DEL508-508): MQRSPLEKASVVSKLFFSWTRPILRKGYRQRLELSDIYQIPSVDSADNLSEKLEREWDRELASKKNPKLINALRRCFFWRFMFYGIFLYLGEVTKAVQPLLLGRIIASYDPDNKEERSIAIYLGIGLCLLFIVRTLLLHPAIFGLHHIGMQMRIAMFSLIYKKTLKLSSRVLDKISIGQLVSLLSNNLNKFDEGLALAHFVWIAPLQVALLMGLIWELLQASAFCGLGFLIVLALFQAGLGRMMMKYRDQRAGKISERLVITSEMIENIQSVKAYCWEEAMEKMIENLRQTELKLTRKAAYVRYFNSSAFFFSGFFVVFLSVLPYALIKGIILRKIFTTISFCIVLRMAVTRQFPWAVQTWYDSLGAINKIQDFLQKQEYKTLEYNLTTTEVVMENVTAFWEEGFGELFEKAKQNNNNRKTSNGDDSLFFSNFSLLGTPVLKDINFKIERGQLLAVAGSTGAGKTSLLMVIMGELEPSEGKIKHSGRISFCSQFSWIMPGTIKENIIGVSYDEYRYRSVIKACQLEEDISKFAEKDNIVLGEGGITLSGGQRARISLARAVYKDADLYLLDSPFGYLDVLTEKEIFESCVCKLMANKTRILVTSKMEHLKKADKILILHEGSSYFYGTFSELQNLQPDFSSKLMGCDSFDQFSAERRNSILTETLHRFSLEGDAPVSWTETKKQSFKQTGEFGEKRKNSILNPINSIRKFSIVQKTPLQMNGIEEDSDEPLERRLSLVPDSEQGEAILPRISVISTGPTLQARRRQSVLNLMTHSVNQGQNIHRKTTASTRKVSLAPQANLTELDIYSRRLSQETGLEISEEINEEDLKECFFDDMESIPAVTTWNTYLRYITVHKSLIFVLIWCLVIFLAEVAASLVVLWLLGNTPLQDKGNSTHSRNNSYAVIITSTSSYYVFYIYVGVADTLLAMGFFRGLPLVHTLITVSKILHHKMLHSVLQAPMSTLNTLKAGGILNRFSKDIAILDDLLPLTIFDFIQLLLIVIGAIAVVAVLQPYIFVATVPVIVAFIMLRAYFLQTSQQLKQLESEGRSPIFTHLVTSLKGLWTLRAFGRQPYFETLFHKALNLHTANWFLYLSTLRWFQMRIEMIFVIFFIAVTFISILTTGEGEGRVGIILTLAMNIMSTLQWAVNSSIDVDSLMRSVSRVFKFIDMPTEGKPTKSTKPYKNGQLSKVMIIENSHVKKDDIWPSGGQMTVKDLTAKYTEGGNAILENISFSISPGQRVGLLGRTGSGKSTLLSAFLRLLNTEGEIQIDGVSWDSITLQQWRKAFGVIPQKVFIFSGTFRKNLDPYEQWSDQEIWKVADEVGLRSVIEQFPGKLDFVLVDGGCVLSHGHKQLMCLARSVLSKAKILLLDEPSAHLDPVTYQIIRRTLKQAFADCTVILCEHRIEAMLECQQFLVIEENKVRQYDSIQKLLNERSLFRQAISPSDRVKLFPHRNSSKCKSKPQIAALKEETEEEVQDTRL

COc1cccc([C@@H]2[C@H](Nc3cc(C(F)(F)F)cc(C)n3)[C@@H](C(C)(C)C)[C@H](C(=O)O)N2C(=O)C2C3COCC32)n1 (mixture of isomers) [III-62]
Emax [1]: < 100% | EC50 [2]: 1 to 10 µM | Maximum % activity (with co-corrector) [3]: ++ (≥150 and <350) | EC50 [4]: 1 to 10 µM

COc1cccc([C@@H]2[C@H](Nc3cc(C(F)(F)F)cc(C)n3)[C@@H](C(C)(C)C)[C@H](C(=O)O)N2C(=O)C2CCCCO2)n1 (mixture of isomers) [III-63]
Emax [1]: < 100% | EC50 [2]: > 10 µM | Maximum % activity (with co-corrector) [3]: + (<150) | EC50 [4]: > 10 µM

COCCOc1ccc(C(F)(F)F)cc1CN[C@@H]1[C@@H](C(C)(C)C)[C@H](C(=O)O)N(C(=O)C2CCCCC2)[C@@H]1c1ccccc1 (racemic) [III-64]
Emax [1]: < 100% | EC50 [2]: 1 to 10 µM | Maximum % activity (with co-corrector) [3]: ++ (≥150 and <350) | EC50 [4]: 1 to 10 µM

COCCn1cc(C(F)(F)F)cc(CN[C@H]2[C@H](C(C)(C)C)[C@@H](C(=O)O)N(C(=O)C3CCCCC3)[C@H]2c2ccccc2)c1=O (racemic) [III-65]
Emax [1]: < 100% | EC50 [2]: > 10 µM | Maximum % activity (with co-corrector) [3]: ++ (≥150 and <350) | EC50 [4]: 1 to 10 µM

CC(C)(C)[C@@H]1[C@@H](NCc2cc(C(F)(F)F)ccc2OCCO)[C@@H](c2ccccc2)N(C(=O)C2CCCCC2)[C@H]1C(=O)O (racemic) [III-66]
Emax [1]: < 100% | EC50 [2]: > 10 µM | Maximum % activity (with co-corrector) [3]: ++ (≥150 and <350) | EC50 [4]: 1 to 10 µM

COc1cccc([C@@H]2[C@H](NCc3ccc(Cl)cc3OC)[C@@H](C(C)(C)C)[C@H](C(=O)O)N2C(=O)C2CCCCC2)n1 (racemic) [III-67]
Emax [1]: 100 to 200% | EC50 [2]: 1 to 10 µM | Maximum % activity (with co-corrector) [3]: +++ (≥350) | EC50 [4]: 1 to 10 µM

COc1cccc([C@H]2[C@@H](NCc3cc(C(F)(F)F)ccc3OC)[C@H](C(C)(C)C)[C@@H](C(=O)O)N2C(=O)C2CCCOC2)n1 (mixture of isomers) [III-69]
Emax [1]: < 100% | EC50 [2]: 1 to 10 µM | Maximum % activity (with co-corrector) [3]: +++ (≥350) | EC50 [4]: 1 to 10 µM

COc1ccc(C(F)(F)F)cc1CN[C@@H]1[C@@H](C(C)(C)C)[C@H](C(=O)O)N(C(=O)C2C3COCC32)[C@@H]1c1ccccc1N(C)C (mixture of isomers) [III-71]
Emax [1]: > 200% | EC50 [2]: 1 to 10 µM | Maximum % activity (with co-corrector) [3]: +++ (≥350) | EC50 [4]: 1 to 10 µM

COCCOc1cnc(Cl)cc1CN[C@@H]1[C@@H](C(C)(C)C)[C@H](C(=O)O)N(C(=O)C2CCCCC2)[C@@H]1c1ccccc1 (racemic) [III-72]
Emax [1]: < 100% | EC50 [2]: > 10 µM | Maximum % activity (with co-corrector) [3]: ++ (≥150 and <350) | EC50 [4]: 1 to 10 µM

CC(C)(C)[C@@H]1[C@@H](NCc2cc(Cl)ncc2O)[C@@H](c2ccccc2)N(C(=O)C2CCCCC2)[C@H]1C(=O)O (racemic) [III-73]
Emax [1]: < 100% | EC50 [2]: > 10 µM | Maximum % activity (with co-corrector) [3]: ++ (≥150 and <350) | EC50 [4]: 1 to 10 µM

CC(C)(C)[C@@H]1[C@@H](NCc2cc(C(F)(F)F)cnc2N)[C@@H](c2ccccc2)N(C(=O)C2CCCCC2)[C@H]1C(=O)O (racemic) [III-74]
Emax [1]: < 100% | EC50 [2]: > 10 µM | Maximum % activity (with co-corrector) [3]: ++ (≥150 and <350) | EC50 [4]: 1 to 10 µM

COc1cccc([C@H]2[C@@H](Nc3cccc(OC(F)F)n3)[C@H](C(C)(C)C)[C@@H](C(=O)O)N2C(=O)C2(C)CCCOC2)n1 (mixture of isomers) [III-76]
Emax [1]: < 100% | EC50 [2]: > 10 µM | Maximum % activity (with co-corrector) [3]: ++ (≥150 and <350) | EC50 [4]: 1 to 10 µM

COc1ccc(C(F)(F)F)cc1CN[C@H]1[C@H](C(C)(C)C)[C@@H](C(=O)O)N(C(=O)C2(C)CCCOC2)[C@H]1c1ccccc1N(C)C (mixture of isomers) [III-77]
Emax [1]: < 100% | EC50 [2]: 1 to 10 µM | Maximum % activity (with co-corrector) [3]: +++ (≥350) | EC50 [4]: 1 to 10 µM

CC(C)(C)[C@@H]1[C@@H](NCc2cc(S(C)(=O)=O)ccc2O)[C@@H](c2ccccc2)N(C(=O)C2CCCCC2)[C@H]1C(=O)O (racemic) [III-79]
Emax [1]: < 100% | EC50 [2]: > 10 µM | Maximum % activity (with co-corrector) [3]: + (<150) | EC50 [4]: > 10 µM

COCCOc1ncc(C(F)(F)F)cc1CN[C@@H]1[C@@H](C(C)(C)C)[C@H](C(=O)O)N(C(=O)C2CCCCC2)[C@@H]1c1ccccc1 (racemic) [III-80]
Emax [1]: < 100% | EC50 [2]: > 10 µM | Maximum % activity (with co-corrector) [3]: ++ (≥150 and <350) | EC50 [4]: 1 to 10 µM

COc1ncc(C(F)(F)F)cc1CN[C@@H]1[C@@H](C(C)(C)C)[C@H](C(=O)O)N(C(=O)C2CCCCC2)[C@@H]1c1ccccc1 (racemic) [III-81]
Emax [1]: 100 to 200% | EC50 [2]: 1 to 10 µM | Maximum % activity (with co-corrector) [3]: +++ (≥350) | EC50 [4]: 1 to 10 µM

COc1cc(Cl)ccc1CN[C@@H]1[C@@H](C(C)(C)C)[C@H](C(=O)O)N(C(=O)C2CCCCC2)[C@@H]1c1ccccn1 (racemic) [III-82]
Emax [1]: < 100% | EC50 [2]: 1 to 10 µM | Maximum % activity (with co-corrector) [3]: ++ (≥150 and <350) | EC50 [4]: 1 to 10 µM

CC(C)(C)[C@@H]1[C@@H](NCc2ccccc2C#N)[C@@H](c2ccccc2)N(C(=O)C2CCCCC2)[C@H]1C(=O)O (racemic) [III-83]
Emax [1]: < 100% | EC50 [2]: > 10 µM | Maximum % activity (with co-corrector) [3]: + (<150) | EC50 [4]: > 10 µM

CC(C)(C)[C@@H]1[C@@H](NCc2cc(C(F)(F)F)ccc2OCCCS(C)(=O)=O)[C@@H](c2ccccc2)N(C(=O)C2CCCCC2)[C@H]1C(=O)O (racemic) [III-84]
Emax [1]: < 100% | EC50 [2]: > 10 µM | Maximum % activity (with co-corrector) [3]: + (<150) | EC50 [4]: 1 to 10 µM

CC(C)(C)[C@@H]1[C@@H](NCc2cc(C(F)(F)F)ccc2OCCCF)[C@@H](c2ccccc2)N(C(=O)C2CCCCC2)[C@H]1C(=O)O (racemic) [III-85]
Emax [1]: < 100% | EC50 [2]: > 10 µM | Maximum % activity (with co-corrector) [3]: ++ (≥150 and <350) | EC50 [4]: 1 to 10 µM

CC(C)(C)[C@@H]1[C@@H](NCc2cc(C(F)(F)F)ccc2OCCOC(F)(F)F)[C@@H](c2ccccc2)N(C(=O)C2CCCCC2)[C@H]1C(=O)O (racemic) [III-86]
Emax [1]: < 100% | EC50 [2]: > 10 µM | Maximum % activity (with co-corrector) [3]: ++ (≥150 and <350) | EC50 [4]: 1 to 10 µM

CC(C)(C)[C@@H]1[C@@H](NCc2cc(C(F)(F)F)cnc2OCCO)[C@@H](c2ccccc2)N(C(=O)C2CCCCC2)[C@H]1C(=O)O (racemic) [III-87]
Emax [1]: < 100% | EC50 [2]: > 10 µM | Maximum % activity (with co-corrector) [3]: ++ (≥150 and <350) | EC50 [4]: 1 to 10 µM

CO[C@@H](C(=O)N1[C@H](c2cccnc2N(C)C)[C@H](Nc2cc(C(F)(F)F)cc(C)n2)[C@@H](C(C)(C)C)[C@@H]1C(=O)O)c1ccccc1 (racemic) [III-89]
Emax [1]: < 100% | EC50 [2]: > 10 µM | Maximum % activity (with co-corrector) [3]: + (<150) | EC50 [4]: > 10 µM

CO[C@H](C(=O)N1[C@H](c2cccnc2N(C)C)[C@H](Nc2cc(C(F)(F)F)cc(C)n2)[C@@H](C(C)(C)C)[C@@H]1C(=O)O)c1ccccc1 (racemic) [III-90]
Emax [1]: < 100% | EC50 [2]: > 10 µM | Maximum % activity (with co-corrector) [3]: + (<150) | EC50 [4]: 1 to 10 µM

COc1ccc(CN[C@@H]2[C@@H](C(C)(C)C)[C@H](C(=O)O)N(C(=O)OC(C)C)[C@@H]2c2ccccc2)c(OC)c1 (racemic) [III-91]
Emax [1]: < 100% | EC50 [2]: 1 to 10 µM | Maximum % activity (with co-corrector) [3]: ++ (≥150 and <350) | EC50 [4]: 1 to 10 µM

COc1cc(-c2ccccc2)ccc1CN[C@@H]1[C@@H](C(C)(C)C)[C@H](C(=O)O)N(C(=O)OC(C)C)[C@@H]1c1ccccc1 (racemic) [III-92]
Emax [1]: < 100% | EC50 [2]: > 10 µM | Maximum % activity (with co-corrector) [3]: + (<150) | EC50 [4]: > 10 µM

— US20180099931A1 (AbbVie S.à.r.l., priority 2016, published 2018)
